Measured values reported in patent publication US20060172941A1, “Anti-angiogenic peptides and methods of use thereof” (priority 2004, published 2006).
“Also recorded” adds a separate entry of the source. Where no end group is shown, it is not given here.

Experiments:
[1] = tested on: VEGF binding to its receptor; experiment: Inhibition of binding of radiolabeled VEGF to endothelial cells; conditions: 30 μM; for VEGF binding inhibition: FIG. 7 legend
Procedure: The activity of the peptides SEQ ID NO.: 1 and SEQ ID NO.: 2 in blocking the binding of radiolabeled VEGF to endothelial cells is shown in FIG. 7.
FIG. 7 illustrates the inhibition of VEGF binding to its receptor by two miniproteins wherein a heparin binding domain is linked to an integrin binding domain. […] Both peptides achieved an almost 100% inhibition at a concentration of 30 μM.

[2] = Heparin binding activity, Hi Trap Heparin HP column, NaCl step elution; conditions: for [NaCl] for elution: heparin column, step gradient in 10 mM NaH2PO4 pH 7
Excerpt: Liquid chromatography was used to determine the relative levels of heparin binding activity of the individual heparin binding domains and of the anti-angiogenic miniproteins that contains them. In this assay, the strength of the heparin binding activity is proportional to the amount of NaCl that is required to elute the peptide bound to the heparin column. Peptides with low binding activity are eluted with lower NaCl concentration, whereas higher concentrations of NaCl are required for peptides with higher binding activity.
Hi Trap Heparin HP column (1 ml, Amersham Biosciences) was equilibrated with 10 column volumes (CV) of equilibration (EQ) buffer=10 mM NaH2PO4 pH 7. All buffers were loaded onto columns via syringes. 500 μl fractions are collected (flow rate=1 ml/minute). 500 μg of peptide (1 mg/ml, resuspended in EQ buffer) was added to each column and the flow through was collected for analysis. The columns were then washed with 3 CV of EQ buffer. Peptides are then eluted with a step gradient of 500, 625, 750, 875 mM NaCl in EQ buffer, 2 CV per each step. A final step of 3 CV of 1000 mM NaCl in EQ buffer was collected in 500 μl fractions. The A210 nm was measured using EQ and elution buffers as blanks.

[3] = tested on: L1210 murine leukemia cells; experiment: L1210 murine leukemia intravenous model, survival; assay type: in vivo, mouse; conditions: dosed IP, FIG. 15a; for Survival: DBA/2 mice
Procedure: Antitumor activity of test peptides, administered intraperitoneally (IP), were evaluated against L1210 murine leukemia cells implanted intravenously (IV) in DBA/2 mice.
Studies generally consisted of randomly-assigned groups of 8 mice per group, which were inoculated IV with 1×10^5 cells per mouse from an in vivo leukemia cell line. In addition to groups tested with test peptides, studies usually included a vehicle-treated control group and a positive control group treated with an agent known to be active in the L1210 leukemia model. Starting one day after tumor inoculation (inoculation day defined as Day 0), mice were treated IP with either vehicle or test peptides in various schedules. Generally this consisted of treatment every other day for approximately 1 week (e.g., Days 1, 3, 5 and 7). A positive agent (e.g., cyclophosphamide) was usually given as a single IP injection on Day 1. All dosing solutions were prepared on each day of treatment. Survival was monitored daily and body weights were measured twice weekly. Anti-tumor activity was assessed by the increase in lifespan of the treated groups in comparison to the vehicle-treated control group. Studies with the L1210 leukemia model were limited to 30 days.

[4] = Biological activity of D-amino acid versions of ST100,038 (test not specified); conditions: tested against a control
Procedure: D-amino acid peptides can be made by generating a D-amino acid peptide with the same sequence as a L-amino acid peptide or by preparing a retro inverso form of a peptide. ST100,045 (SEQ ID NO.: 31) has the same sequence as ST100,038 (SEQ ID NO.: 29) was tested against ST100,059 (SEQ ID NO.: 30) which is the retro inverso version of ST100,038 and a control.

[5] = tested on: Bovine Retinal Endothelial Cells (BRE); experiment: VEGF-mediated survival/proliferation of bovine retinal endothelial cells (WST1); assay type: cell-based; conditions: VEGF 25 ng/ml, 72 hours; for Inhibition of VEGF-mediated survival/proliferation: FIG. 4 and 5
Procedure: (§1) The anti-angiogenic activities of the peptides were tested by measuring the level of inhibition of VEGF and bFGF mediated survival/proliferation of Bovine Retinal Endothelial Cells (BRE), Human Dermal Microvasculature Endothelial Cells, and Human Umbilical Vein Endothelial Cells, all of which are standard cell lines used to test anti-angiogenic compounds.
Bovine retinal endothelial (BRE) cells were maintained in Cambrex EG2 media. For non-adherent cell assays, on day one cells were starved for either 6 hours or overnight, then trypsinized and plated in 96-well plates in 100 μl of Optimem plus 1% fetal bovine serum (FBS). One hundred μl of Optimem plus 1% FBS was added to the wells containing, where appropriate, VEGF to a final concentration of 25 ng/ml, and the various peptides to final concentrations as described. For adherent cells, cells were plated in 96-well plates in complete media, allowed to adhere overnight, washed in starvation media (Optimem plus 1% FBS) and then starved during the day. At the end of the day, 100 μl of Optimem plus 1% FBS was added to the wells containing, where appropriate, VEGF to a final concentration of 25 ng/ml and the various peptides to final concentrations as described.
(§2) In all cases, after 72 hours incubation, the amount of live cells in each well was measured with the WST1 assay (Roche).

[6] = tested on: B16-F1 melanoma cells; experiment: Subcutaneous B16 melanoma tumor growth in vivo; design: species or system mouse; conditions: 20 mg/kg and 40 mg/kg daily IP, FIG. 13
Procedure: Because of the importance of the angiogenic process for tumorigenesis, miniproteins as described herein, were hypothesized to show good anti-tumor activity. The peptides of the invention were tested in an in vivo model of anti-tumor activity. This model compares the growth of subcutaneous B16 melanoma tumor in vivo either untreated or treated with various amount of miniproteins described in this application. This model is widely accepted in the art as a model to test the anti-tumor activity of compounds that inhibit tumor growth because they have anti-angiogenic activity.
Male C57BL/6 mice were obtained with a mean body weight of 20±2 g. Mouse B16-F1 melanoma cells were implanted subcutaneously (5×10^5 cell per animal). Peptides (formulated in water) were administered ip daily at the amount indicated starting the day after cells injection. In general, tumors became palpable around 9 days after injection of cells. Tumor were then measured every 2 days.

[7] = tested on: Human Umbilical Vein Endothelial Cells; experiment: bFGF-mediated survival/proliferation of human umbilical vein endothelial cells (WST1); assay type: cell-based; conditions: FIG. 6, 9, 10, 17
Procedure: as §1
Human umbilical cord endothelial (HUVEC) cells were maintained in Cambrex EGM-2MV media. On day one, cells were starved overnight in 1% FBS in M200 media (Cascade Biologicals). The morning after, the media were replaced with serum-free media (control) or media containing 25 ng/ml of human VEGF165 and the various peptides to final concentrations as described.
as §2

[8] = tested on: L1210; experiment: Tumor cell proliferation (WST-1), L1210; assay type: cell-based, mouse; conditions: FIG. 11
Procedure: Peptides to be tested were prepared at a stock concentration of 10 mM in sterile phosphate buffered saline. Cancer cell lines obtained from the American Type Culture Collection (MG-63, HT1080, A498, BxPC3, 786-0, PC-3, B16F1, B16F10, P388D1, Jurkat, MOLT4, THP-1, U-937, L1210, RPMI 8226, NCI H929, U266B1, K562) were cultured under appropriate conditions as described in the literature. Cell culture media and reagents were obtained from ATCC (Manassas, Va.), Invitrogen (Carlsbad, Calif.) or Mediatech (Herndon, Va.). Exponentially growing cultures were used for cell proliferation assays. Adherent cells were plated at a concentration of 100000 cells per milliter in growth media overnight (18-24 h) and treated the next day in a low serum media (growth media with 1% FBS for MG-63, HT1080, A498, BxPC3, PC-3, B16F1, B16F10. 786-0 cells were treated in media with 5% FBS). Suspension cell lines (P388D1, Jurkat, MOLT4, THP-1, U-937, L1210, RPMI 8226, NCI H929, U266B1, and K562) were diluted to a concentration of 100,000 cells per ml and treated on the same day with peptides. Peptides were diluted in treatment media and cells were treated for 48 or 72 hours depending on the cell line. Each dose was tested in triplicate for each experiment, and experiments were repeated for a minimum of three discrete times. After incubation, the relative number of cells was determined using WST-1 (Roche Applied Science). A 9.5 μl aliquot of WST-1 was added to each well. The plate was immediately read at 440 nm using a Bio-Tek PowerWave XS microplate reader, incubated for 2-3 hours at 37° C. and then read again. Cell proliferation was determined as the percent of the control cell proliferation. The absorbance of each well at time 0 was subtracted from the value of the final reading. Afterwards the blank values were averaged and subtracted from each test and control value. Finally, each test absorbance was divided by the average of the control absorbances and multiplied by 100 to obtain the percent of control. […]

PYAGRGDSVVYGLGGGPGAARGRRAARGRR [ST100,033]
inhibition of VEGF binding [1]: ~100%
VEGF binding inhibition [1]: completely abolished VEGF binding

RLGYVVSDGRGDYPKKKRRGRAARRGRAA [ST100,065, middle rotated replaced version of ST100,061]
heparin binding activity (comparison in words) [2]: bind less strongly than ST100,082
[NaCl] for elution [2]: 750 mM
Survival [3]: statistically significant increases in survival
mice (cured mice) that survived longer than 30 days [3]: Sixty to eighty

YDGRGDSVVYGLKKKAARGRRAARGRR [ST100,032]
inhibition of VEGF binding [1]: ~100%
VEGF binding inhibition [1]: completely abolished VEGF binding

ATSLPPHSSQSP (also: D-amino acids noted, form not shown; listed as Homo sapiens) [ST100,045]
biological activity [4]: Only the retro inverso form of ST100,038, (ST100,059; SEQ ID NO.: 30) was found to be biologically active

RRGRAARRGRAAKKKPSQSSHPPLSTA (listed as Homo sapiens) [ST100,068]
Inhibition of VEGF-mediated survival/proliferation [5]: VEGF stimulation was inhibited with increasing doses; also recorded: more potent in blocking VEGF stimulation
Inhibition of tumor growth [6]: able to inhibit tumor growth
[NaCl] for elution [2]: 875 mM

RRGRAAKKKRRGRAAKKKRLGYVVSDGRGDYP [ST100,074]
Inhibition of bFGF-mediated survival [7]: the most active in inhibiting bFGF stimulation
fraction number ([2]; 500 μl fractions of heparin column elution): 27-28
[NaCl] for elution [2]: 1000 mM
Survival [3]: statistically significant increases in survival
mice (cured mice) that survived longer than 30 days [3]: Sixty to eighty

RRGRAARRGRAAKKK (listed as Homo sapiens) [ST100,078]
Inhibition of bFGF-mediated survival [7]: not as potent
[NaCl] for elution [2]: 875 mM
Inhibition of proliferation of mouse leukemia L1210 cells [8]: Neither ST100,077 (SEQ ID NO.: 16) encoding the integrin binding domain or ST100,078 (SEQ ID NO.: 17) encoding the heparin binding domain or the simple combination of the two peptides (ST100,077 and ST100,078) blocked cell proliferation or induced cell death

ATSLPPHSSQSP (listed as Homo sapiens) [ST100,038]
Concentration that completely abolished VEGF-induced increase in WST-1 value ([5]; FIG. 4): above 40 μM
Inhibition of VEGF-mediated survival/proliferation [5]: caused the amount of WST-1 to decrease

RLGYVVSDGRGDYP (listed as Homo sapiens) [ST100,077]
Inhibition of proliferation of mouse leukemia L1210 cells [8]: Neither ST100,077 (SEQ ID NO.: 16) encoding the integrin binding domain or ST100,078 (SEQ ID NO.: 17) encoding the heparin binding domain or the simple combination of the two peptides (ST100,077 and ST100,078) blocked cell proliferation or induced cell death
